Patent US20260200928A1, “THERAPEUTIC COMPOUNDS” (Sanofi, priority 2022, published 2026)

Molecular target: T1, human IL-17A (Homo sapiens, UniProt Q16552)
T1 construct: purchased R&D Systems 7955-IL/CF
T1 sequence (Q16552 24-155): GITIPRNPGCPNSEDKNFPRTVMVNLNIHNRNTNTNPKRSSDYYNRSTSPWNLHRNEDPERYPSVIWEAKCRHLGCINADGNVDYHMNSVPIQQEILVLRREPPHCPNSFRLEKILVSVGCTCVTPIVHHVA
Experiment: IL-17A AlphaLISA competition assay (block of IL-17A binding to its receptor IL-17RA)
Conditions: mean IC50 (n≥2), block of IL-17A binding to IL-17RA
Method in brief: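 Human recombinant IL-17A (7.5 nM stock) pre-incubated 30 min at RT with compound, then IL-17RA/Fc (5 nM stock) added for 90 min; AlphaLISA read with anti-Fc acceptor beads, biotinylated anti-IL-17A antibody (5 nM) and streptavidin donor beads (3 h, dark). IC50 from 4-parameter logistic fit, normalised to DMSO and 4 μM reference inhibitor; n≥2.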

| Compound | IC50 [nM] |
| --- | --- |
| COC[C@H](c1ccnc(NC(=O)[C@@H](NC(=O)c2nocc2C2CCC2)C2CCC(F)(F)CC2)c1)N1C[C@@H](C(F)(F)F)NC1=O [Example 191, 4-cyclobutyl-N-((S)-1-(4,4-difluorocyclohexyl)-2-((4-((S)-2-methoxy-1-((S)-2-oxo-4-(trifluoromethyl)imidazolidin-1-yl)ethyl)pyridin-2-yl)amino)-2-oxoethyl)isoxazole-3-carboxamide] | 31 |
| 4-ethyl-N-(1-(4-fluorocyclohexyl)-2-((4-((S)-2-methoxy-1-((S)-2-oxo-4-(trifluoromethyl)imidazolidin-1-yl)ethyl)pyridin-2-yl)amino)-2-oxoethyl)-1,2,5-oxadiazole-3-carboxamide [Example 285] | 17 |
| CCC[C@H](c1ccnc(NC(=O)C(NC(=O)c2nocc2CC)C2CCC(F)(F)CC2)c1)N1C[C@@H](C(F)(F)F)NC1=O (stereo in doubt) [Example 158, N—((S)-1-(4,4-difluorocyclohexyl)-2-oxo-2-((4-((R)-1-((S)-2-oxo-4-(trifluoromethyl)imidazolidin-1-yl)butyl)pyridin-2-yl)amino)ethyl)-4-ethylisoxazole-3-carboxamide] | 18 |
| COC[C@H](c1ccnc(NC(=O)[C@H](COC(C)(C)C(F)(F)F)NC(=O)c2nocc2C)c1)N1C[C@@H](C(F)(F)F)NC1=O [Example 265, N—((S)-1-((4-((S)-2-methoxy-1-((S)-2-oxo-4-(trifluoromethyl)-imidazolidin-1-yl)ethyl)pyridin-2-yl)amino)-1-oxo-3-((1,1,1-trifluoro-2-methylpropan-2-yl)oxy)propan-2-yl)-4-methylisoxazole-3-carboxamide] | 45 |
| COCC(c1ccnc(NC(=O)[C@@H](NC(=O)c2nonc2C)[C@H]2CC[C@H](C)CC2)c1)N1C[C@@H](C(F)(F)F)NC1=O (single isomer, unassigned) [Example 86] | 6 |
| Cn1nccc1C(=O)N[C@H](C(=O)Nc1cc(C(NC(=O)CCC(F)(F)F)C2CC2)ccn1)[C@H]1CC[C@H](C)CC1 (stereo partly drawn) [Example 236, N-((1S)-2-((4-(cyclopropyl(4,4,4-trifluorobutanamido)methyl)pyridin-2-yl)amino)-1-((1r,4S)-4-methylcyclohexyl)-2-oxoethyl)-1-methyl-1H-pyrazole-5-carboxamide] | 26 |
| CCn1nccc1C(=O)N[C@H](C(=O)Nc1cc(C(COC)NC(=O)CCC(F)(F)F)ccn1)C1CCC(F)(F)CC1 (single isomer, unassigned) [Example 144] | 1830 |
| Cn1nccc1C(=O)N[C@H](C(=O)Nc1cc(C(NC(=O)CCC(F)(F)F)C2CC2)ccn1)C(C1CC1)C1CC1 (single isomer, unassigned) [Example 42] | 524 |
| CCc1nocc1C(=O)N[C@H](C(=O)Nc1cc(CN2C[C@@H](C(F)(F)F)NC2=O)ccn1)C1CCC(F)(F)CC1 [Example 13, N-((S)-1-(4,4-difluorocyclohexyl)-2-oxo-2-((4-(((S)-2-oxo-4-(trifluoromethyl)imidazolidin-1-yl)methyl)pyridin-2-yl)amino)ethyl)-3-ethylisoxazole-4-carboxamide] | 122 |
| CC(C)n1nccc1C(=O)N[C@H](C(=O)Nc1cc(C(NC(=O)CCC(F)(F)F)C2CC2)ccn1)[C@H]1CC[C@H](C)CC1 (stereo partly drawn) [Example 106, N-((1S)-2-((4-(cyclopropyl(4,4,4-trifluorobutanamido)methyl)pyridin-2-yl)amino)-1-((1r,4S)-4-methylcyclohexyl)-2-oxoethyl)-1-isopropyl-1H-pyrazole-5-carboxamide] | 31 |
| COCC(c1ccnc(NC(=O)[C@@H](NC(=O)c2ocnc2C)[C@H]2CC[C@H](C)CC2)c1)N1C[C@@H](C(F)(F)F)NC1=O (single isomer, unassigned) [Example 122] | 82 |
| COC[C@H](c1ccnc(NC(=O)C(NC(=O)c2ccnn2C)C2CCC(F)CC2)c1)N1C[C@@H](C(F)(F)F)NC1=O (single isomer, unassigned) [Example 288] | 84 |
| CCn1nccc1C(=O)N[C@H](C(=O)Nc1cc(C[C@H]2C[C@@H](C(F)(F)F)NC2=O)ccn1)[C@H]1CC[C@H](C)CC1 [Example 155, 1-ethyl-N—((S)-1-((1r,4S)-4-methylcyclohexyl)-2-oxo-2-((4-(((3S,5S)-2-oxo-5-(trifluoromethyl)pyrrolidin-3-yl)methyl)pyridin-2-yl)amino)ethyl)-1H-pyrazole-5-carboxamide] | 29 |
| C[C@@H]1CN(Cc2ccnc(NC(=O)[C@@H](NC(=O)c3ccnn3C3CC3)C(C3CC3)C3CC3)c2)C(=O)N1 [Example 34, 1-cyclopropyl-N—((S)-1,1-dicyclopropyl-3-((4-(((R)-4-methyl-2-oxoimidazolidin-1-yl)methyl)pyridin-2-yl)amino)-3-oxopropan-2-yl)-1H-pyrazole-5-carboxamide] | 1470 |
| COC[C@H](c1ccnc(NC(=O)[C@@H](NC(=O)C(F)(F)c2cccc(C#N)c2)[C@H]2CC[C@H](C)CC2)c1)N1C[C@@H](C(F)(F)F)NC1=O (relative stereo) [Example 247, 2-(3-Cyanophenyl)-2,2-difluoro-N—((S)-2-((4-((S)-2-methoxy-1-((S)-2-oxo-4-(trifluoromethyl)imidazolidin-1-yl)ethyl)pyridin-2-yl)amino)-1-((1r,4S)-4-methylcyclohexyl)-2-oxoethyl)acetamide] | 58 |
| COC[C@H](c1ccnc(NC(=O)[C@@H](NC(=O)c2cnoc2C(C)C)[C@@H]2C[C@H]3C[C@H]3C2)c1)N1C[C@@H](C(F)(F)F)NC1=O [Example 319, N—((S)-1-((1R,3s,5S)-bicyclo[3.1.0]hexan-3-yl)-2-((4-((S)-2-methoxy-1-((S)-2-oxo-4-(trifluoromethyl)imidazolidin-1-yl)ethyl)pyridin-2-yl)amino)-2-oxoethyl)-5-isopropylisoxazole-4-carboxamide] | 38 |
| COC[C@H](c1ccnc(NC(=O)C(NC(=O)c2nonc2C)C2CCC(C)(F)CC2)c1)N1C[C@@H](C(F)(F)F)NC1=O (single isomer, unassigned) [Example 298] | 85 |
| COCC(NC(=O)CCC(F)(F)F)c1ccnc(NC(=O)[C@@H](NC(=O)c2ccnn2C2CC2)C2CCC(F)(F)CC2)c1 (single isomer, unassigned) [Example 139] | 265 |
| CC(C)n1nccc1C(=O)N[C@H](C(=O)Nc1cc(C[C@@H]2C[C@@H](C(F)(F)F)NC2=O)ccn1)[C@H]1CC[C@H](C)CC1 [Example 154, 1-isopropyl-N—((S)-1-((1r,4S)-4-methylcyclohexyl)-2-oxo-2-((4-(((3R,5S)-2-oxo-5-(trifluoromethyl)pyrrolidin-3-yl)methyl)pyridin-2-yl)amino)ethyl)-1H-pyrazole-5-carboxamide] | 527 |
| CCc1nocc1C(=O)N[C@H](C(=O)Nc1cc(C(NC(=O)CCC(F)(F)F)C2CC2)ccn1)C1CCC(F)(F)CC1 (stereo partly drawn) [Example 161, N-((1S)-2-((4-(cyclopropyl(4,4,4-trifluorobutanamido)methyl)pyridin-2-yl)amino)-1-(4,4-difluorocyclohexyl)-2-oxoethyl)-3-ethylisoxazole-4-carboxamide] | 615 |
| COC[C@H](c1ccnc(NC(=O)C(NC(=O)c2nonc2C)C2CCC(F)CC2)c1)N1C[C@@H](C(F)(F)F)NC1=O (single isomer, unassigned) [Example 287] | 47 |
| CCc1nonc1C(=O)N[C@H](C(=O)Nc1cc(C(COC)N2C[C@@H](C(F)(F)F)NC2=O)ccn1)[C@H]1CC[C@H](C)CC1 (single isomer, unassigned) [Example 88] | 4 |
| CCn1nccc1C(=O)N[C@H](C(=O)Nc1cc(C[C@H]2C[C@@H](C(F)(F)F)NC2=O)ccn1)C1CCC(F)(F)CC1 [Example 223, N-((S)-1-(4,4-difluorocyclohexyl)-2-oxo-2-((4-(((3S,5S)-2-oxo-5-(trifluoromethyl)pyrrolidin-3-yl)methyl)pyridin-2-yl)amino)ethyl)-1-ethyl-1H-pyrazole-5-carboxamide] | 84 |
| COCC(c1ccnc(NC(=O)[C@@H](NC(=O)c2nc(Br)ccc2C)[C@H]2CC[C@H](C)CC2)c1)N1C[C@@H](C(F)(F)F)NC1=O (single isomer, unassigned) [Example 94] | 4860 |
| COC[C@H](c1ccnc(NC(=O)C(NC(=O)c2nonc2C2CC2)C2CCC(F)CC2)c1)N1C[C@@H](C(F)(F)F)NC1=O (single isomer, unassigned) [Example 276] | 24 |
| COC[C@H](c1ccnc(NC(=O)[C@@H](NC(=O)c2nonc2C)C2CCC(Cl)CC2)c1)N1C[C@@H](C(F)(F)F)NC1=O (stereo partly drawn) [Example 315, N-((1S)-1-(4-chlorocyclohexyl)-2-((4-((S)-2-methoxy-1-((S)-2-oxo-4-(trifluoromethyl)imidazolidin-1-yl)ethyl)pyridin-2-yl)amino)-2-oxoethyl)-4-methyl-1,2,5-oxadiazole-3-carboxamide] | 90 |
| CCn1nccc1C(=O)N[C@H](C(=O)Nc1cc([C@@H](C)N2C[C@@H](C(F)(F)F)NC2=O)ccn1)[C@H]1CC[C@H](C)CC1 [Example 239, 1-ethyl-N-((S)-1-((1r,4S)-4-methylcyclohexyl)-2-oxo-2-((4-((R)-1-((S)-2-oxo-4-(trifluoromethyl)imidazolidin-1-yl)ethyl)pyridin-2-yl)amino)ethyl)-1H-pyrazole-5-carboxamide] | 16 |
| CC(C)(C)OCC(NC(=O)OCc1ccccc1)C(=O)Nc1cc(CN2C[C@@H](C(F)(F)F)NC2=O)ccn1 (mixture of isomers) [Example 81, Benzyl ((rac)-3-(tert-butoxy)-1-oxo-1-((4-(((S)-2-oxo-4-(trifluoromethyl)imidazolidin-1-yl)methyl)pyridin-2-yl)amino)propan-2-yl)carbamate] | 6140 |
